Measurements: patent US11724998B2, “PXR agonists and uses thereof for gut barrier dysfunction treatment and prevention” (Albert Einstein College of Medicine, priority 2017, dated 2023)
“And” between values parts separate entries of the source, which are not always exact repeats. Equal entries are not always repeated. Where two headings read alike, the source gives them in different places.

Legend:
[1] = molecular target: T1, PXR (Homo sapiens, UniProt O75469); experiment: PXR activation, HepG2 reporter assay; format: cell-based; design: host or cells: HepG2
T1 sequence (O75469 1-434): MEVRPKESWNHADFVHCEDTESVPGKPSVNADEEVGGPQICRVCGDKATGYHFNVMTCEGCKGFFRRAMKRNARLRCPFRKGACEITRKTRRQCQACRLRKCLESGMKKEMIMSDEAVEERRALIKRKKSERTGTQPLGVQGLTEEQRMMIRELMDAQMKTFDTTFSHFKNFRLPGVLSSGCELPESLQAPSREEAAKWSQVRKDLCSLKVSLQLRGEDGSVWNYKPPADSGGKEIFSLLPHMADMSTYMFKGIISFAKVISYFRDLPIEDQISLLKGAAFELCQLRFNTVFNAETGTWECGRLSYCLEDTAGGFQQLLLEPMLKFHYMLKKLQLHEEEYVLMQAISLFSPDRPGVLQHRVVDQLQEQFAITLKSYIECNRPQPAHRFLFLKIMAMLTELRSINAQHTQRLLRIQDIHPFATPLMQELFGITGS
Source text: (§1) Two molecules that were readily available (Ryan Scientific: FKK999 & BAS451) were purchased and tested in vitro for PXR activation using a HepG2 reporter assay. […] […]. […] In general, reporter cell lines are efficient ways to screen for PXR ligands (72). In the LS180 intestinal cell line, the PXR activation assay involves a transient transfection system using a specific PXR plasmid and reporter plasmid (CVmax % 11.2+2; CVmid % 10.8+0.1.4; Signal Window 6.2+1.1; Z′ factor 0.51+0.005).

[2] = system: RXR; experiment: RXR ligand displacement (radiolabeled 9-cis-retinoic acid); format: binding; settings: displacement of radiolabeled 9-cis-retinoic acid
Description: (§2) FIG. 6A-6E. Activation and inhibition studies with different FKK compounds. (A) PXR activation, LS180 cells (upper), and PXR inhibition, LS180 cells, co-incubation with RIF (lower). (B) AhR activation, AZ-AHR cells (upper), and AhR inhibition, AZ-AHR cells, co-incubation with TCDD (lower). (C) GR activation, AZ-GR cells (upper), and VDR activation, IZ-VDRE cells (lower). (D) TR activation, PZ-GR cells (upper), and AR activation, AIZ-AR cells (lower). (E) Displacement of radiolabeled 9-cis-retinoic acid (RA) by FKK compounds.
(§3) All the synthesized compounds and intermediates were tested for their potential to activate PXR and/or AhR via luciferase assays. The PXR activation assays were performed by co-transfecting full-length expressing human PXR plasmid (91) and p3A4 luciferase reporter (92) in LS180 or Caco-2 cells. AhR activation conducted using stably co-transfected HepG2 reporter cells as previously described (93). […] With the exception of FKK6, there was no significant inhibition of TCDD-induced AhR activation. […] Independent verification of AhR activity of randomly selected compounds—FKK 5, 6 and 9—was performed in a separate laboratory (GHP). Nuclear receptor selectivity was assessed for FKK compounds for GR, ADR, TR and AR using cell-based luciferase assays previously described (93-102). […]

[3] = system: AhR target gene (CYP1A1); format: cell-based, human
Source text: (§4) FIG. 2A-2F. […] Histogram, mean±SD.
FIG. 7A-7B. Effects of FKK compounds on CYP3A4, MDR1 and CYP1A1 gene expression in LS180 cells. (A) mRNA expression. (B) mRNA expression in wt-PXR transfected cells.

[4] = system: PXR target genes (CYP3A4, MDR1)
[5] = system: AhR target genes (CYP1A1 and CYP1A2); format: cell-based, human
Source text: as §4

[6] = system: AhR target genes (CYP1A1 and CYP1A2); experiment: AhR target gene mRNA expression in HepaRG cells (control, AhR-KO)
[7] = molecular target: T2, AhR (Homo sapiens, UniProt P35869); experiment: AhR activation, AZ-AHR (stably co-transfected HepG2) reporter cells; format: cell-based; design: endogenous in cells; host or cells: AZ-AHR (HepG2); settings: to a much lesser extent than FKK 2 and 9; FIG. 6B
T2 sequence (P35869 11-848): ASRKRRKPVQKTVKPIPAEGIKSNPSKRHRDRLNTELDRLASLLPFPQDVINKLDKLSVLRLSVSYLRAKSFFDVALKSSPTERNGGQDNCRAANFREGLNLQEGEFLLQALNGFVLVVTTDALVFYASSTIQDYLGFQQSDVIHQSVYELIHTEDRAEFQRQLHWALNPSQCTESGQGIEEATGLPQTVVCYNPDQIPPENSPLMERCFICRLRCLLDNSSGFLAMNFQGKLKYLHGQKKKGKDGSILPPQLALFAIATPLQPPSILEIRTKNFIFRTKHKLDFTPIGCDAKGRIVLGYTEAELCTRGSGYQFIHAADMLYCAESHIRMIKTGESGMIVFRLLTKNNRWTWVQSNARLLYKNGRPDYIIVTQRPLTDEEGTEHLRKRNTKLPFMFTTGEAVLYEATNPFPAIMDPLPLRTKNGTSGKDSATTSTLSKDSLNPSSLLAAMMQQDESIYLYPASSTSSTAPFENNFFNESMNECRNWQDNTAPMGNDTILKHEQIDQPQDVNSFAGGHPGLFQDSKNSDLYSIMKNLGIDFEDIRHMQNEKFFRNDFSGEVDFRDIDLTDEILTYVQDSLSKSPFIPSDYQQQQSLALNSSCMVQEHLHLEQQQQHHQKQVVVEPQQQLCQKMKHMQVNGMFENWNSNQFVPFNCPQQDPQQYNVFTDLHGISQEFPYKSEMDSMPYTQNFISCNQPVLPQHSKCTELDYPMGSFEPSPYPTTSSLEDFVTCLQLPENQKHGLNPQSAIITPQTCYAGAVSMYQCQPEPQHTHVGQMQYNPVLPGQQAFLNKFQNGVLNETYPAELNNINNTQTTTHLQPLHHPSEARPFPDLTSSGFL
Description: as §2
(§5) All the synthesized compounds and intermediates were tested for their potential to activate PXR and/or AhR via luciferase assays. The PXR activation assays were performed by co-transfecting full-length expressing human PXR plasmid (91) and p3A4 luciferase reporter (92) in LS180 or Caco-2 cells. AhR activation conducted using stably co-transfected HepG2 reporter cells as previously described (93). […] With the exception of FKK6, there was no significant inhibition of TCDD-induced AhR activation. […] Independent verification of AhR activity of randomly selected compounds—FKK 5, 6 and 9—was performed in a separate laboratory (GHP). Nuclear receptor selectivity was assessed for FKK compounds for GR, ADR, TR and AR using cell-based luciferase assays previously described (93-102). There was no observed biologically significant (>2-fold) induction of nuclear receptor activity (FIG. 6C). RXR ligand displacement is only significant for FKK1 and FKK8 (FIG. 6D).

[8] = system: 468 kinases; experiment: Kinase profiling, scanMAX (KINOMEscan) panel; format: binding; settings: 10 μM; for Number of Hits: 403 non-mutant kinases
Description: The kinase inhibition assays were conducted by DiscoverX on a platform assay by Ambit BioSciences as described previously (112, 113). FKK6 was screened at a single concentration of 10 μM in duplicate. The scanMAXSM assay panel measures 468 kinases (WorldWideWeb.discoverx.com/services/drug-discovery-development-services/kinase-profiling/kinomescan/scanmax). The assays measures a compound's ability to inhibit binding of a canonical ligand substrate, with 0% activity of control corresponding to full inhibition and 100% activity of control to no inhibition. […] Three different activity cut-offs were analyzed—S(35) or % activity of control <35; S(10) or % activity of control <10; and S(1) or % activity of control <1. To illustrate effect or lack of effect, an image of the entire family of kinases tested were grouped by families and S(35). The TREEspot Kinase dendrogram image was generated using TREEspot™ Software Tool and reprinted with permission from KINOMEscan®, a division of DiscoveRx Corporation, © DISCOVERX CORPORATION 2010.

[9] = system: PXR occupancy of the target promoters; experiment: Chromatin immunoprecipitation assay (ChIP); format: cell-based; settings: semi-quantitative PCR
Description: These assays were performed as previously published (27).

[10] = molecular target: T1, PXR; experiment: Isothermic titration calorimetry (ITC); format: binding; settings: FIG. 11
[11] = system: PXR target genes (CYP3A4, MDR1); settings: human, 24 h, 10 μM
[12] = molecular target: T2, AhR; experiment: AhR inhibition, AZ-AHR cells, co-incubation with TCDD; format: cell-based; design: endogenous in cells; host or cells: AZ-AHR (HepG2); settings: read-out: inhibition of maximal induction by TCDD
Description: as §2, §3

[13] = system: PXR target genes (CYP3A4, MDR1); experiment: PXR target gene mRNA expression in plated human hepatocytes; settings: 10 μM, 24 h, FIG. 2
[14] = molecular target: T1, PXR; experiment: PXR activation (transactivation) luciferase assay in LS180 cells; format: cell-based; design: co-transfecting full-length expressing human PXR plasmid (91) and p3A4 luciferase reporter (92) in LS180 or Caco-2 cells; expressed in transfected cells; host or cells: LS180
Description: as §2, §1, §5

[15] = molecular target: T2, AhR; experiment: AhR activation by IPA (assay not described); format: cell-based
Source text: IPA/Indoles can have weak (˜2 fold) but important effects on the activation of other nuclear receptors (e.g., CAR, LXR) (33). […] Some receptors, specifically CAR and LXR, can act to induce liver steatosis (79, 83-86) and hepatocarcinogenesis (CAR) (80, 84, 87-89) and thus, avoiding excessive activation of these nuclear receptors in the context of PXR activation would be important. […] CDK5 (along with CDK2) are important kinases that phosphorylate and inhibit PXR activation (90).

SMILES: Cc1[nH]c2ccccc2c1C(c1ccccc1)c1c(C)[nH]c2ccccc12 [BAS451]
- EC50 [1]: > 50 µM

SMILES: O=S(=O)(c1ccccc1)n1c(C(O)c2ccncc2)cc2ccccc21 (stereo not shown) [FKK1]
- RXR ligand displacement [2]: significant
- CYP1A1 mRNA expression [3]: attenuated effects
- CYP1A1 mRNA induction [3]: attenuated effects
- CYP3A4 mRNA expression [4]: expression is reduced

SMILES: OC(c1ccncc1)(c1cc2ccccc2[nH]1)c1cc2ccccc2[nH]1 [FKK2]
- induction of CYP1A1 and CYP1A2 ([5]; human, hepatocytes): > 100 fold
- induction of CYP1A1 and CYP1A2 [6]: completely diminished

SMILES: CC#CC(O)(c1ccncc1)c1cc2ccccc2n1S(=O)(=O)c1ccccc1 (stereo not shown) [FKK3]
- AhR activation profile [7]: variable degrees of dose-dependent AhR activation

SMILES: CC#CC(O)(c1ccncc1)c1cc2ccccc2n1COCC (stereo not shown) [FKK4]
- AhR activation profile [7]: variable degrees of dose-dependent AhR activation

SMILES: C#CCC(O)(c1ccncc1)c1cc2ccccc2n1S(=O)(=O)c1ccccc1 (stereo not shown) [FKK6]
- S(1-35)-scores ([8]; duplicate): 0
- inhibitory effects on kinases ([8]; 468 kinases): lack of inhibitory effects of FKK6 on any kinase
- Number of Hits ([8]; S(1), % activity of control <1): 0
- Number of Hits ([8]; S(10), % activity of control <10): 0
- Number of Hits ([8]; S(35), % activity of control <35): 0
- PXR occupancy of the target promoters [9]: efficiently induces PXR occupancy
- binding to human PXR [10]: efficient and direct binding
- CYP3A4 induction [11]: ~10 fold
- MDR1 induction [11]: > 6 fold
- inhibition at 10 µM [12]: ~25%
- CYP3A4 induction [13]: ~2.6 fold
- MDR1 induction [13]: ~1.5 fold
- EC50 [14]: 0.88 µM
- Emax ([14]; read-out: Emax/Emax[rifampicin, positive control]): 117%

SMILES: O=S(=O)(c1ccccc1)n1c(C(O)(Cc2cc3ccccc3[nH]2)c2ccncc2)cc2ccccc21 (stereo not shown) [FKK7]
- AhR activation profile [7]: variable degrees of dose-dependent AhR activation

SMILES: CCOCn1c(C(O)(Cc2cc3ccccc3[nH]2)c2ccncc2)cc2ccccc21 (stereo not shown) [FKK9]
- induction of CYP1A1 and CYP1A2 ([5]; human, hepatocytes): > 100 fold
- induction of CYP1A1 and CYP1A2 [6]: completely diminished

SMILES: OC(Cc1cc2ccccc2[nH]1)(c1ccncc1)c1cc2ccccc2[nH]1 (stereo not shown) [FKK10]
- AhR activation profile [7]: variable degrees of dose-dependent AhR activation

SMILES: Cc1[nH]c2ccccc2c1C(c1c(C)[nH]c2ccccc12)c1c(C)[nH]c2ccccc12 [FKK999, reference compound]
- CYP1A1 mRNA expression [3]: attenuated effects
- CYP1A1 mRNA induction [3]: attenuated effects
- CYP3A4 mRNA expression [4]: expression is reduced
- CYP3A4 mRNA induction ([4]; human): > 2 fold
- EC50 ([1]; HepG2 reporter assay, read-out: EC50, PXR activation): 5 µM
- AhR activation profile [7]: variable degrees of dose-dependent AhR activation

SMILES: O=C(O)CCc1c[nH]c2ccccc12 [IPA, indole-3-propionic acid, reference compound]
- AhR activation [15]: does not activate AhR

SMILES: Clc1cc2c(cc1Cl)Oc1cc(Cl)c(Cl)cc1O2 [TCDD]
- CYP1A1 mRNA induction ([3]; PXR transfected LS180 cells, FIG. 7B): 1299.1 fold
- CYP1A1 mRNA expression ([3]; un-transfected LS180 cells, FIG. 7A): 2347 fold and < 3000 fold
- induction of CYP1A1 and CYP1A2 ([5]; primary human hepatocytes, FKK2 and FKK9 in 1 of 4 hepatocytes): > 5000 fold
